# Test results published in PMC6826616, “Topical 2′-Hydroxyflavanone for Cutaneous Melanoma” (Cancers, 2019).
# Read-outs that look alike come from different tables or passages of the source.
# Tests used:
# [1] = tested on: B16-F0 cells; test: MTT cytotoxicity assay, B16-F0; format: cell-based; conditions: Mus musculus, B16F0
# Excerpt: We studied the growth-inhibitory effects of 2HF on the B16-F0 and B16-F10 murine melanoma cell lines as well as on the SK-MEL-24 human melanoma cell line. B16-F10 and SK-MEL-24 have been shown in previous studies to be highly resistant to treatment and much more invasive than B16-F0 [32]. […] The absorption value measured upon reduction of the MTT dye by functional mitochondria is an indirect measure of cell number that cannot distinguish inhibited cell proliferation from apoptotic or necrotic cell death. By counting viable (trypan-blue dye-excluding) cells using a hemacytometer, we verified that 2HF did indeed cause cell death.
# Figure 1 Mouse and human melanoma cell survival following 2′-hydroxyflavanone (2HF) treatment.
# The IC50 of 2HF on B16-F0, B16-F10, and SK-MEL-24 cells was determined by MTT cytotoxicity assay. Cells were harvested and Trypan Blue dye exclusion test was used to determine the number of viable cells present in a cell suspension using a hemocytometer. The cell suspension was diluted to 5 × 10^4 cells/mL with Dulbecco’s Modified Eagle’s Medium (DMEM) complete medium and 5000 cells/well were plated in 96-well plates. After 24 h incubation at 37 °C, cells were treated with 2HF concentrations ranging from 0–200 µM (8 replicates per plate). After 48 or 72 h incubation, 40 µL of MTT (5 mg/mL) solution was added. After 4 h incubation, the plate was centrifuged at 700× g for 5 min and medium was aspirated completely. Then, 50 µL DMSO was added to each well to dissolve the purple precipitate on the rocking platform for about 15 min. The absorbance was then measured at 490 nm using a 96-well microplate reader (Spectramax Plus, Molecular Devices, Inc, San Jose, CA, USA).
# [2] = tested on: SK-MEL-24 cells; test: Western blot densitometry of whole-cell lysates, SK-MEL-24; format: cell-based, human; conditions: 48 h
# Protocol: Supplemental data for Fig. 2C. Caspase 9
# Numbers below of each blot represent protein 1.0 1.2 0.5 ND ND ND ND ND ND band intensity ratios to adequate controls after Procaspase 3 […]
# RAL BP- 1 and apoptosis enzymes in SK-Mel-24, B16F0 17kD Active caspase 3 […]
# 48h. Cells were plated in complete growth medium. After overnight, cells were treated with different doses of 2HF, and PARP-1 incubated for 48h. Total cell lysates (40 µg/lane) were […]
# buffer. Proteins were transferred to nitrocellulose C-terminal cleaved membrane, nonspecific binding was done in 1X clear milk, PARP~89kDa
# +0.1%T20 (Invitrogen) for 1h at room temperature. All primary antibodies were from (mouse monoclonal, 1.0 0.8 0.9 1.0 0.9 ND 1.0 1.1 ND Santacruze Biotechnology (1:1000), in 1X clear milk
# +0.1%T20 overnight in 40C. Secondary antibody from N-terminal cleaved
# Santacruze Biotech (1:2000) for 1h at room temperature in PARP~24kDa […]
# Supplemental Figure 7 Supplemental data for Fig. 5.
# B16F0 SK-Mel- 24 B16F10Numbers below of each blot represent protein band intensity ratios to adequate
# TNF-α Full blots are presented in next 4 figures. […]
# cells after treatment with 50, 100 µM 2HF for 48h.
# Raf-1 Raf-1 Cells were plated in complete growth medium. After overnight, cells were treated with different doses of 2HF, […]
# loaded on 4- 12% bis-tris gel, with 1X MES gel running p-MEK-1 p-MEK-1 buffer. Proteins were transferred to nitrocellulose membrane, nonspecific binding was done in 1X clear
# All primary antibodies were from (mouse monoclonal, MEKK15 MEKK15 except TNF-α (American Hamster), Santacruze
# 1.0 0.9 0.1 ND ND ND overnight in 40C. Secondary antibody from Santacruze Biotech (1:2000) for 1h at room temperature in 1X clear […]
# [3] = LC-MS/MS analysis of 2HF in serum after topical application; format: in vivo, C57BL/6 mice; conditions: topical 12 mg 2HF/0.1 mL PLO gel each day for 8 weeks, blood within 2 h after final dosage
# Protocol: C57BL/6 mice were administered either 0.1 mL PLO gel or 12 mg 2HF in 0.1 mL PLO gel topically each day for 8 weeks. On the last day, the blood was collected within 2 h after final dosage, and subjected to LC-MS/MS analyses according to established protocol. Briefly, serum from control and 2HF-treated mice was extracted twice with 500 µL ethyl acetate and the organic layers were collected and evaporated to dryness in a speed-vac. The residue was reconstituted in 40 µL methanol containing 0.1% formic acid (FA) for analysis. An LC-MS method was developed for the quantitative analysis of 2HF using an Agilent 6490 triple quadrupole coupled with an Agilent 1290 UHPLC system. In short, the binary pump delivered buffers A (0.1% FA in water) and buffer B (0.1% FA in acetonitrile) over 10 min with the following gradient: From 10% B to 20% B in 1 min, then ramp to 90% B at 6 min, 10% B at 8 min, 10% B at 8.5 min, column equilibration post analysis was 2 min. An Agilent Zorbax, 0.5 × 150 mm, 5 µm particle size was used for the separation at a flow rate of 50 µL/min.
smiles,measurement,setting,value
"O=C1CC(c2ccccc2O)Oc2ccccc21 (stereo not drawn) [2HF, 2′-hydroxyflavanone]",IC50,"[1]; MTT, 72 h, mean ±SD, n = 5, read-out: IC50 at 72 h (growth/survival)",38 ± 4 µM
same,IC50,"[1]; Table 1, agent alone, read-out: IC50",38.6 ± 1.61 µM
same,Active caspase 3 band intensity ratio to control (normalized against β-Actin),"[2]; SK-Mel-24, 50 µM 2HF",0.9
same,C-terminal cleaved PARP~89kDa band intensity ratio to control (normalized against β-Actin),"[2]; SK-Mel-24, 50 µM 2HF",0.8
same,Caspase 9 band intensity ratio to control (normalized against β-Actin),"[2]; SK-Mel-24, 50 µM 2HF",1.2
same,N-terminal cleaved PARP~24kDa band intensity ratio to control (normalized against β-Actin),"[2]; SK-Mel-24, 50 µM 2HF",0.8
same,PARP-1 band intensity ratio to control (normalized against β-Actin),"[2]; SK-Mel-24, 50 µM 2HF",0.7
same,Procaspase 3 band intensity ratio to control (normalized against β-Actin),"[2]; SK-Mel-24, 50 µM 2HF",0.8
same,RAL BP-1 band intensity ratio to control (normalized against β-Actin),"[2]; SK-Mel-24, 50 µM 2HF",0.4
same,Raf-1 band intensity ratio to control (normalized against β-Actin),"[2]; SK-Mel-24, 50 µM 2HF",1.7
same,TNF-α band intensity ratio to control (normalized against β-Actin),"[2]; SK-Mel-24, 50 µM 2HF",0.4
same,p-PDGFR-β band intensity ratio to control (normalized against β-Actin),"[2]; SK-Mel-24, 50 µM 2HF",0.7
same,Active caspase 3 band intensity ratio to control (normalized against β-Actin),"[2]; SK-Mel-24, 100 µM 2HF",1.1
same,C-terminal cleaved PARP~89kDa band intensity ratio to control (normalized against β-Actin),"[2]; SK-Mel-24, 100 µM 2HF",0.9
same,Caspase 9 band intensity ratio to control (normalized against β-Actin),"[2]; SK-Mel-24, 100 µM 2HF",0.5
same,N-terminal cleaved PARP~24kDa band intensity ratio to control (normalized against β-Actin),"[2]; SK-Mel-24, 100 µM 2HF",0.4
same,PARP-1 band intensity ratio to control (normalized against β-Actin),"[2]; SK-Mel-24, 100 µM 2HF",0.1
same,Procaspase 3 band intensity ratio to control (normalized against β-Actin),"[2]; SK-Mel-24, 100 µM 2HF",0.5
same,RAL BP-1 band intensity ratio to control (normalized against β-Actin),"[2]; SK-Mel-24, 100 µM 2HF",0.1
same,p-PDGFR-β band intensity ratio to control (normalized against β-Actin),"[2]; SK-Mel-24, 100 µM 2HF",0.4
same,2HF in serum,[3],4.3 ± 0.4 µM
